Test results as given in PMC6332220, “Synthesis, Characterization and Biological Evaluation of Some Quinoxaline Derivatives: A Promising and Potent New Class of Antitumor and Antimicrobial Agents” (Molecules, 2015).
≈ marks a conversion by molar mass, not a printed value.

Tests used:
Streptococcus faecalis = test: MIC by broth dilution, Streptococcus faecalis; type: cell-based; conditions: Enterococcus faecalis, Gram positive, 0.98-125 µg/mL, read-out: Minimum Inhibitory Concentration (MIC) (µg/mL) Streptococcus faecalis
Experimental: (§1) In this study, MIC (quantitative method) was used for evaluation of the antimicrobial activity of tested compounds. Screening was evaluated in vitro using the Broth dilution method according to CLSI [45]. All the bacteria were incubated and activated at 30 °C for 24 h inoculation into nutrient broth and the fungi were incubated in malt extract broth for 48 h. The compounds were dissolved in DMSO and then diluted using […] Mueller-Hinton broth. […] In each case triplicate tests were performed and the average was taken as the final reading. The tubes were then inoculated with the test organisms, grown in their suitable broth at 37 °C for 24 h for tested microorganisms (1 × 10^8 CFU/mL for bacteria and 1 × 10^6 CFU/mL of fungi), each 5 mL received 0.1 mL of the above inoculum and incubated at 37 °C for 24 h.

[1] = test system: WI 38 (normal fibroblast cells); test: In vitro cytotoxicity, SRB cell growth assay, normal cells WI 38; type: cell-based, human; conditions: 48 h exposure, non-cytotoxic = IC50 >100 μg/mL; for IC50: Homo sapiens, WI-38, 48 h
Experimental: (§2) The in vitro cytotoxic activity of the newly synthesized compounds against human breast cell line (MCF7), non-small cell lung cancer NCIH460, CNS cancer SF-268 and WI 38 (normal fibroblast cells) were evaluated using doxorubicin as the reference drug according to the method reported by Skehan et al..
(§3) The newly synthesized compounds were evaluated in vitro against three human cancer cell lines; which are MCF-7 (breast adenocarcinoma), NCI-H460 (non-small cell lung cancer) and SF-268 (CNS cancer), and WI 38 (normal fibroblast cells) were used in this study. MCF-7 was obtained from the European Collection of Cell Cultures (ECACC, Salisbury, UK) but NCI-H460, SF-268 and WI 38 were kindly provided by the National Cancer Institute (NCI, Cairo, Egypt). They grow as monolayer and routinely maintained RPMI-1640 medium supplemented with 5% heat inactivated fetal bovine serum (FBS), 2 mM glutamine and antibiotics (penicillin 100 U/mL, streptomycin 100 µg/mL), at 37 °C in a humidified atmosphere containing 5% CO2. Exponentially growing cells were obtained by plating 1.5 × 10^5 cells/mL for MCF-7 and SF-268, and 0.75 × 10^4 cells/mL for NCI-H460 followed by 24 h of incubation. The effect of the vehicle solvent (DMSO) on the growth of these cell lines was evaluated in all experiments by exposing untreated control cells to the maximum concentration (0.5%) of DMSO used in each assay.
(§4) The effect of compounds on the in vitro growth of human tumor cell lines were evaluated according to the procedure adopted by the National Cancer Institute ([…]) in the “In vitro Anticancer Drug Discovery Screen” that uses the protein-binding dye sulforhodamine B (SRB) to assess cell growth. In the assay protocol, all cells were incubated at 37 °C under humidified atmosphere containing 5% CO2. Briefly, exponentially cells growing in 96-well plates were then exposed for 48 h to five serial concentrations of each compound, starting from a maximum concentration of 150 μg/mL. Following this exposure period adherent cells were fixed, washed and stained. The bound stain was solubilized and the absorbance was measured at 492 nm in a plate reader (Bio-Tek Instruments Inc., Power wave XS, Winston, NC, USA). For each test compound and cell line, a dose response curve was obtained and the inhibitory concentration of 50% (IC50), corresponding to the concentration of the compounds that inhibited 50% of the net cell growth was calculated as described elsewhere. Doxorubicin was used as a positive control and tested in the same manner.

Escherichia coli = test: MIC by broth dilution, Escherichia coli; type: cell-based; conditions: Escherichia coli, Gram negative, 0.98-125 µg/mL, read-out: Minimum Inhibitory Concentration (MIC) (µg/mL) Escherichia coli
Experimental: as §1

[2] = test system: NCI-H460 (non-small cell lung cancer); test: In vitro cytotoxicity, SRB cell growth assay, NCI-H460; conditions: Homo sapiens, NCI-H460, 48 h, read-out: IC50 (μg/mL) NCI-H460
Experimental: as §2, §3, §4

Aspergillus flavus = test: Disk diffusion, Aspergillus flavus; type: cell-based; conditions: Fungi, 8.0 mm disks, 10 μL
Experimental: (§5) The disk diffusion method was used for determination of the antimicrobial activity using ampicillin, gentamicin and amphotericin B as reference drugs. The results were recorded for each compounds as the average diameter as inhibition zones (IZ) of bacterial or fungal growth around the discs in mm as shown in Table 2.
(§6) Antimicrobial activities were carried out against highly pathogenic strains; three strains of Gram positive bacteria (Bacillus subtilis, Staphylococcus aureus and Streptococcus faecalis), four strains of Gram negative bacteria (Escherichia coli, Neisseria gonorrhoeae, Pseudomonas aeruginosa and Salmonella typhimurium) and three fungi strains (Aspergillus flavus, Aspergillus fumigatus and Candida albicans) isolated from primary agar plates. Antimicrobial activity of the tested samples was determined using a modified Kriby-Bauer disk diffusion method. Briefly, 100 µL of the test bacteria/fungi were grown in 10 mL of fresh media until they reached a count approximately 10^8 cells/mL for bacteria or 10^5 cells/mL for fungi. 100 µL of microbial suspension was spread onto agar plates corresponding to the broth in which they were maintained. The inoculated plates of bacterial strains were incubated at 35–37 °C for 24–48 h, while the inoculated plates of fungal strains such as A. flavus and A. fumigatus were incubated at 25 °C for 48 h and yeast as C. albicans was incubated at 30 °C for 24–48 h.
(§7) The agar disk diffusion (qualitative) method was used in this investigation for determination of the preliminary antibacterial and antifungal activities. The agar used was Mueller-Hinton agar plates that are rigorously tested for composition and pH. Further the depth of the agar in the plate is a factor to be considered in the disk diffusion method.
(§8) Reference drugs: ampicillin was used as a standard antibacterial drug for Gram positive bacteria, gentamicin as a standard antibacterial drug for Gram negative bacteria and amphotericin B as antifungal standard drug.
(§9) Bacterial and fungal strains were spread onto the surface of the agar plates using sterile cotton swabs. For evaluation of antibacterial activities, blank paper disks (Schleicher & Schuell, Alicante, Spain) with a diameter of 8.0 mm were saturated with 10 μL of tested concentration of the stock solutions. Disks were dried and then placed onto inoculated agar plates. The plates of bacterial strains were reincubated at 35–37 °C for 24–48 h, while the plates of fungal strains such as A. flavus and A. fumigatus were reincubated at 25 °C for 48 h and yeast as C. albicans was reincubated at 30 °C for 24–48 h as mentioned above. […] For an accurate analysis, tests were run in triplicate for each strain to avoid any error as described in Table 2.
Disk diffusion method for filamentous fungi testing by using approved standard method (M02-A11) developed by the CLSI for evaluating the susceptibilities of filamentous fungi to antifungal agents. Disk diffusion method for yeasts developed by using approved standard method (M44-A2) by the CLSI [44]. Agar-based methods such as disk diffusion can be good alternatives because they are simpler and faster than broth-based methods.

Neisseria gonorrhoeae = test: Disk diffusion, Neisseria gonorrhoeae; type: cell-based; conditions: Gram negative, 8.0 mm disks, 10 μL
Experimental: as §5, §6, §7, §8, §9

Salmonella typhimurium = test: MIC by broth dilution, Salmonella typhimurium; type: cell-based; conditions: Salmonella enterica, TYPHIMURIUM, Gram negative, 0.98-125 µg/mL, read-out: Minimum Inhibitory Concentration (MIC) (µg/mL) Salmonella typhimurium
Experimental: as §1

Row | MIC (Streptococcus faecalis) | MIC (Escherichia coli) | MIC (Salmonella typhimurium) | SMILES | IC50 [1] | IC50 [2] | Inhibition Zone Diameter (IZ) (mm) Aspergillus flavus (Aspergillus flavus) | Inhibition Zone Diameter (IZ) (mm) Neisseria gonorrhoeae (Neisseria gonorrhoeae) | IC50 (μg/mL) WI 38 [1]
1 | 0.98 µg/mL (≈ 3.64 µM) | 1.95 µg/mL (≈ 7.25 µM) | 0.98 µg/mL (≈ 3.64 µM) | NNc1nc2ccc(Br)cc2nc1NN [Compound 9, 6-Bromo-2,3-dihydrazinylquinoxaline] | 30.6 ± 6.21 mg/L (≈ 114 µM) | 16.4 ± 2.32 µg/mL (≈ 60.8 µM) | R (R (IZ = 0 mm)) | 28 mm | –
2 | 31.2 µg/mL (≈ 77.5 µM) | 3.9 µg/mL (≈ 9.67 µM) | 1.95 µg/mL (≈ 4.84 µM) | NC1=NN(c2nc3ccc(Br)cc3nc2N2N=C(N)CC2=O)C(=O)C1 [Compound 16, 6-Bromo-2,3-bis(3-amino-1H-pyrazol-5(4H)-one)quinoxaline] | 30 ± 2.36 mg/L (≈ 74.5 µM) | 22.9 ± 0.46 µg/mL (≈ 56.9 µM) | R (R (IZ = 0 mm)) | 11 mm | –
3 | 0.98 µg/mL (≈ 3.44 µM) | 3.9 µg/mL (≈ 13.7 µM) | 0.98 µg/mL (≈ 3.44 µM) | Clc1nc2ccc(Br)cc2n2nnnc12 [Compound 4, 8-Bromo-4-chlorotetrazolo[1,5-a]quinoxaline] | > 100 mg/L | 0.01 ± 0.004 µg/mL (≈ 0.0351 µM) | 13 mm | 21 mm | –
4 | 62.5 µg/mL (≈ 215 µM) | 62.5 µg/mL (≈ 215 µM) | 7.81 µg/mL (≈ 26.8 µM) | Brc1ccc2c(c1)n1nnnc1c1nnnn21 [Compound 11, 9-Bromoditetrazolo[1,5-a:5′,1′-c]quinoxaline] | > 100 mg/L | 2.83 ± 0.53 µg/mL (≈ 9.72 µM) | R (R (IZ = 0 mm)) | R (R (IZ = 0 mm)) | 56.85 ± 4.05 µg/mL (≈ 195 µM)
5 | 1.95 µg/mL (≈ 5.85 µM) | 3.9 µg/mL (≈ 11.7 µM) | 1.95 µg/mL (≈ 5.85 µM) | Cc1cc(C)n(-c2nc3cc(Br)ccc3nc2NN)n1 [Compound 14, 6-Bromo-3-(3,5-dimethyl-1H-pyrazol-1-yl)-2-hydrazinyl quinoxaline] | 58.7 ± 8.65 mg/L (≈ 176 µM) | 38.3 ± 2.35 µg/mL (≈ 115 µM) | R (R (IZ = 0 mm)) | 12 mm | –
6 | 3.9 µg/mL (≈ 11.6 µM) | 1.95 µg/mL (≈ 5.82 µM) | 1.95 µg/mL (≈ 5.82 µM) | Brc1ccc2nc(N3CCOCC3)c3nnnn3c2c1 [Compound 5b, 8-Bromo-4-(morpholin-4-yl)tetrazolo[1,5-a]quinoxaline] | > 100 mg/L | 0.01 ± 0.002 µg/mL (≈ 0.0298 µM) | R (R (IZ = 0 mm)) | R (R (IZ = 0 mm)) | –
7 | 62.5 µg/mL (≈ 188 µM) | 125 µg/mL (≈ 375 µM) | 31.2 µg/mL (≈ 93.8 µM) | Brc1ccc2nc(N3CCCCC3)c3nnnn3c2c1 [Compound 5a, 8-Bromo-4-(piperidin-1-yl)tetrazolo[1,5-a]quinoxaline] | > 100 mg/L | 0.02 ± 0.006 µg/mL (≈ 0.06 µM) | R (R (IZ = 0 mm)) | R (R (IZ = 0 mm)) | –

Row | SMILES | MIC (Streptococcus faecalis) | MIC (Escherichia coli) | MIC (Salmonella typhimurium) | IC50 [1] | IC50 [2] | Inhibition Zone Diameter (IZ) (mm) Aspergillus flavus (Aspergillus flavus) | Inhibition Zone Diameter (IZ) (mm) Neisseria gonorrhoeae (Neisseria gonorrhoeae) | IC50 (μg/mL) WI 38 [1]
8 | NNc1nc2cc(Br)ccc2nc1Cl [Compound 3, 6-Bromo-2-chloro-3-hydrazinylquinoxaline] | 15.6 µg/mL (≈ 57.1 µM) | 3.9 µg/mL (≈ 14.3 µM) | 1.95 µg/mL (≈ 7.13 µM) | 32.2 ± 6.54 mg/L (≈ 118 µM) | 26.7 ± 2.18 µg/mL (≈ 97.8 µM) | R (R (IZ = 0 mm)) | 14 mm | –
